Reference: US7951997B2, “Reversible male sterility in transgenic plants by expression of cytokinin oxidase” (Monsanto Technology LLC, priority 2001, dated 2011)

System: male-sterile F1 transgenic plants (CKX1)
Assay: Fertility restoration: tassel fertility rating after TDZ and kinetin applications
Format: in vivo, corn
Parameters: key: 0: No or very little floral development; x: Advanced floral development observed in some areas of tassels; xx: Increased areas of advanced floral development and anthersis observed in some flowers
Conditions: 0.25% Sylgard 309
Method: Two commercially registered chemicals were tested in fertility restoration experiments. Kinetin is a synthetic cytokinin that is not oxidized by CKX1 and TDZ is a known cytokinin oxidase inhibitor. The F1 seeds from the crosses between wild-type plants and several male-sterile R0 events were planted. NPTII ELISA positive plants were identified as the male-sterile transgenic plants among F1 segregating populations by enzyme-linked immunosorbent assays (ELISA, Example 3) performed on leaf samples collected at the seedling stage of all plants. Identified plants were treated at the V4, V7 and V10 stages. The application rates for each plant were 0, 10, 20, 30, and 100 mg of kinetin with or without 3 mg of TDZ in the presence of 0.25% of Sylgard 309 surfactant (Willbur-Ellis, Fresno, Calif.). One to three plants were tested at a particular rate combination.
The NPTII ELISA tests were thus used to select male sterile F1 transgenic plants for chemical treatments. […] These chemical application conditions were not sufficient to produce fully fertile plants. The degree of floral development restoration varied and was limited to older tissues of the tassel. […] Table 3 details tassel fertility rating of the restoration study.
Two to three transgenic F1 plants were used in each treatment group. Plants were either treated repeatedly in three different rates at three V4, V7 and V10 developmental stages or once in a higher rate at V7 developmental stage. Rates are indicated by mg/plant of TDZ and kinetin, respectively, in the presence of 0.25% of Sylgard 309 surfactant. The fertility rating was based on the visual observation. 0, No or very little floral development; x, Advanced floral development observed in some areas of tassels; xx, Increased areas of advanced floral development and anthersis observed in some flowers.

Measured: tassel fertility rating

c1coc(CNc2ncnc3[nH]cnc23)c1 [kinetin]
0: line 16400, TDZ 0, kinetin 20 mg/plant, applications at V4 + V7 + V10 | line 16400, TDZ 0, kinetin 100 mg/plant, application at V7 | line 16409, TDZ 0, kinetin 20 mg/plant, applications at V4 + V7 + V10 | line 16409, TDZ 0, kinetin 100 mg/plant, application at V7 | line 16802, TDZ 0, kinetin 20 mg/plant, applications at V4 + V7 + V10 | line 16802, TDZ 0, kinetin 100 mg/plant, application at V7 | line 16825, TDZ 0, kinetin 20 mg/plant, applications at V4 + V7 + V10 | line 16825, TDZ 0, kinetin 100 mg/plant, application at V7 | line 16832, TDZ 0, kinetin 20 mg/plant, applications at V4 + V7 + V10 | line 16832, TDZ 0, kinetin 100 mg/plant, application at V7
